{"source": "patent US10131652B2", "about": "“Pyrimidinyloxy benzene derivatives as herbicides” (E. I. DU PONT DE NEMOURS AND COMPANY, priority 2014, dated 2018)", "experiment_in_all_cases": "Test D pre-/postemergence plant response", "assay_type_in_all_cases": "in vivo", "key": {"[1]": {"system": "large (Lg) crabgrass (Digitaria sanguinalis)", "details": "Digitaria sanguinalis; for pest or weed control at 8 g/ha: 8 g ai/ha; for pest or weed control at 16 g/ha: 16 g ai/ha; for pest or weed control at 31 g/ha: 31 g ai/ha; for pest or weed control at 62 g/ha: 62 g ai/ha", "summary_of_the_method": "(§1)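 Pre-/post-emergence greenhouse test. Pre: seeded loam+sand, sprayed same day. Post: 1–4 leaf plants (2–18 cm), peat/vermiculite mix. Formulation: non-phytotoxic solvent + surfactant. Scored visually d13–15, 0–100 vs control.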"}, "[2]": {"system": "ragweed (common ragweed, Ambrosia elatior)", "details": "Ambrosia artemisiifolia; for pest or weed control at 8 g/ha: 8 g ai/ha; for pest or weed control at 16 g/ha: 16 g ai/ha; for pest or weed control at 31 g/ha: 31 g ai/ha; for pest or weed control at 62 g/ha: 62 g ai/ha", "summary_of_the_method": "as §1"}, "[3]": {"system": "pigweed (Amaranthus retroflexus)", "details": "Amaranthus retroflexus; for pest or weed control at 8 g/ha: 8 g ai/ha; for pest or weed control at 16 g/ha: 16 g ai/ha; for pest or weed control at 31 g/ha: 31 g ai/ha; for pest or weed control at 62 g/ha: 62 g ai/ha", "summary_of_the_method": "as §1"}, "[4]": {"system": "blackgrass (Alopecurus myosuroides)", "details": "Alopecurus myosuroides; for pest or weed control at 8 g/ha: 8 g ai/ha; for pest or weed control at 16 g/ha: 16 g ai/ha; for pest or weed control at 31 g/ha: 31 g ai/ha; for pest or weed control at 62 g/ha: 62 g ai/ha", "summary_of_the_method": "as §1"}, "[5]": {"system": "yellow nutsedge (Cyperus esculentus)", "details": "Cyperus; for pest or weed control at 8 g/ha: 8 g ai/ha; for pest or weed control at 16 g/ha: 16 g ai/ha; for pest or weed control at 31 g/ha: 31 g ai/ha; for pest or weed control at 62 g/ha: 62 g ai/ha", "summary_of_the_method": "as §1"}, "[6]": {"system": "giant foxtail (Setaria faberii)", "details": "Setaria faberi, post-emergence, Postemergence", "summary_of_the_method": "as §1"}, "[7]": {"details": "post-emergence, Postemergence, scale 0 to 100 (0 no effect, 100 complete control), read-out: Crabgrass, Large plant response rating"}, "[8]": {"details": "pre-emergence, Preemergence, scale 0 to 100 (0 no effect, 100 complete control), read-out: Plant response rating, Crabgrass, Large"}, "[9]": {"details": "post-emergence, Postemergence, scale 0 to 100 (0 no effect, 100 complete control), read-out: Ragweed plant response rating"}, "[10]": {"details": "pre-emergence, Preemergence, scale 0 to 100 (0 no effect, 100 complete control), read-out: Plant response rating, Ragweed"}, "[11]": {"details": "post-emergence, Postemergence, scale 0 to 100 (0 no effect, 100 complete control), read-out: Pigweed plant response rating"}, "[12]": {"details": "pre-emergence, Preemergence, scale 0 to 100 (0 no effect, 100 complete control), read-out: Plant response rating, Pigweed"}, "[13]": {"details": "post-emergence, Postemergence, scale 0 to 100 (0 no effect, 100 complete control), read-out: Blackgrass plant response rating"}, "[14]": {"details": "pre-emergence, Preemergence, scale 0 to 100 (0 no effect, 100 complete control), read-out: Plant response rating, Blackgrass"}, "[15]": {"details": "post-emergence, Postemergence, scale 0 to 100 (0 no effect, 100 complete control), read-out: Nutsedge, Yellow plant response rating"}, "[16]": {"details": "pre-emergence, Preemergence, scale 0 to 100 (0 no effect, 100 complete control), read-out: Plant response rating, Nutsedge, Yellow"}}, "note": "Where two headings read alike, the source gives them in different places."}
{"compound": "FC(F)c1cc(-c2ccccc2Oc2ncc(Cl)cn2)no1", "note": "[Compound 35, 5-chloro-2-[2-[5-(difluoromethyl)-3-isoxazolyl]phenoxy]pyrimidine]", "values": [{"measurement": "pest or weed control at 8 g/ha", "setting": "[1]; post-emergence, Postemergence, read-out: Plant response rating (scale 0 to 100), Crabgrass, Large", "result": 5, "unit": "%"}, {"measurement": "pest or weed control at 16 g/ha", "setting": "[1]; [7]", "result": 10, "unit": "%"}, {"measurement": "pest or weed control at 31 g/ha", "setting": "[1]; [7]", "result": 10, "unit": "%"}, {"measurement": "pest or weed control at 62 g/ha", "setting": "[1]; post-emergence, Postemergence, scale 0 to 100, 0 no effect, 100 complete control, read-out: Plant response rating, Crabgrass, Large", "result": 10, "unit": "%"}, {"measurement": "pest or weed control at 8 g/ha", "setting": "[1]; [8]", "result": 80, "unit": "%"}, {"measurement": "pest or weed control at 16 g/ha", "setting": "[1]; [8]", "result": 100, "unit": "%"}, {"measurement": "pest or weed control at 31 g/ha", "setting": "[1]; [8]", "result": 100, "unit": "%"}, {"measurement": "pest or weed control at 62 g/ha", "setting": "[1]; [8]", "result": 100, "unit": "%"}, {"measurement": "pest or weed control at 8 g/ha", "setting": "[2]; post-emergence, Postemergence, read-out: Plant response rating (scale 0 to 100), Ragweed", "result": 40, "unit": "%"}, {"measurement": "pest or weed control at 16 g/ha", "setting": "[2]; [9]", "result": 45, "unit": "%"}, {"measurement": "pest or weed control at 31 g/ha", "setting": "[2]; [9]", "result": 85, "unit": "%"}, {"measurement": "pest or weed control at 62 g/ha", "setting": "[2]; post-emergence, Postemergence, scale 0 to 100, 0 no effect, 100 complete control, read-out: Plant response rating, Ragweed", "result": 75, "unit": "%"}, {"measurement": "pest or weed control at 8 g/ha", "setting": "[2]; [10]", "result": 55, "unit": "%"}, {"measurement": "pest or weed control at 16 g/ha", "setting": "[2]; [10]", "result": 40, "unit": "%"}, {"measurement": "pest or weed control at 31 g/ha", "setting": "[2]; [10]", "result": 75, "unit": "%"}, {"measurement": "pest or weed control at 62 g/ha", "setting": "[2]; [10]", "result": 80, "unit": "%"}, {"measurement": "pest or weed control at 8 g/ha", "setting": "[3]; post-emergence, Postemergence, read-out: Plant response rating (scale 0 to 100), Pigweed", "result": 80, "unit": "%"}, {"measurement": "pest or weed control at 16 g/ha", "setting": "[3]; [11]", "result": 80, "unit": "%"}, {"measurement": "pest or weed control at 31 g/ha", "setting": "[3]; [11]", "result": 90, "unit": "%"}, {"measurement": "pest or weed control at 62 g/ha", "setting": "[3]; post-emergence, Postemergence, scale 0 to 100, 0 no effect, 100 complete control, read-out: Plant response rating, Pigweed", "result": 95, "unit": "%"}, {"measurement": "pest or weed control at 8 g/ha", "setting": "[3]; [12]", "result": 100, "unit": "%"}, {"measurement": "pest or weed control at 16 g/ha", "setting": "[3]; [12]", "result": 100, "unit": "%"}, {"measurement": "pest or weed control at 31 g/ha", "setting": "[3]; [12]", "result": 100, "unit": "%"}, {"measurement": "pest or weed control at 62 g/ha", "setting": "[3]; [12]", "result": 100, "unit": "%"}, {"measurement": "pest or weed control at 8 g/ha", "setting": "[4]; post-emergence, Postemergence, read-out: Plant response rating (scale 0 to 100), Blackgrass", "result": 30, "unit": "%"}, {"measurement": "pest or weed control at 16 g/ha", "setting": "[4]; [13]", "result": 35, "unit": "%"}, {"measurement": "pest or weed control at 31 g/ha", "setting": "[4]; [13]", "result": 40, "unit": "%"}, {"measurement": "pest or weed control at 62 g/ha", "setting": "[4]; post-emergence, Postemergence, scale 0 to 100, 0 no effect, 100 complete control, read-out: Plant response rating, Blackgrass", "result": 60, "unit": "%"}, {"measurement": "pest or weed control at 8 g/ha", "setting": "[4]; [14]", "result": 70, "unit": "%"}, {"measurement": "pest or weed control at 16 g/ha", "setting": "[4]; [14]", "result": 70, "unit": "%"}, {"measurement": "pest or weed control at 31 g/ha", "setting": "[4]; [14]", "result": 90, "unit": "%"}, {"measurement": "pest or weed control at 62 g/ha", "setting": "[4]; [14]", "result": 90, "unit": "%"}, {"measurement": "pest or weed control at 8 g/ha", "setting": "[5]; post-emergence, Postemergence, read-out: Plant response rating (scale 0 to 100), Nutsedge, Yellow", "result": 5, "unit": "%"}, {"measurement": "pest or weed control at 16 g/ha", "setting": "[5]; [15]", "result": 5, "unit": "%"}, {"measurement": "pest or weed control at 31 g/ha", "setting": "[5]; [15]", "result": 5, "unit": "%"}, {"measurement": "pest or weed control at 62 g/ha", "setting": "[5]; post-emergence, Postemergence, scale 0 to 100, 0 no effect, 100 complete control, read-out: Plant response rating, Nutsedge, Yellow", "result": 5, "unit": "%"}, {"measurement": "pest or weed control at 8 g/ha", "setting": "[5]; [16]", "result": 0, "unit": "%"}, {"measurement": "pest or weed control at 16 g/ha", "setting": "[5]; [16]", "result": 0, "unit": "%"}, {"measurement": "pest or weed control at 31 g/ha", "setting": "[5]; [16]", "result": 5, "unit": "%"}, {"measurement": "pest or weed control at 62 g/ha", "setting": "[5]; [16]", "result": 5, "unit": "%"}, {"measurement": "pest or weed control at 8 g/ha", "setting": "[6]; 8 g ai/ha, read-out: Plant response rating (scale 0 to 100), Foxtail, Giant", "result": 5, "unit": "%"}, {"measurement": "pest or weed control at 16 g/ha", "setting": "[6]; 16 g ai/ha, scale 0 to 100 (0 no effect, 100 complete control), read-out: Foxtail, Giant plant response rating", "result": 5, "unit": "%"}, {"measurement": "pest or weed control at 31 g/ha", "setting": "[6]; 31 g ai/ha, scale 0 to 100 (0 no effect, 100 complete control), read-out: Foxtail, Giant plant response rating", "result": 10, "unit": "%"}, {"measurement": "pest or weed control at 62 g/ha", "setting": "[6]; 62 g ai/ha, scale 0 to 100, 0 no effect, 100 complete control, read-out: Plant response rating, Foxtail, Giant", "result": 15, "unit": "%"}]}
